# Measurements: ChEMBL document CHEMBL5055685, “Discovery of the First Potent IDO1/IDO2 Dual Inhibitors: A Promising Strategy for Cancer Immunotherapy” (J Med Chem, 2021)
# Active and inactive are the calls of the source. The rule behind the calls is not given here.
# Legend:
# [1] = test system: HCT-116; assay: Antitumor immunity in BALB/c mouse xenografted with human HCT-116 cells assessed as necrotic Treg cells in spleen by propidium iodide staining based flow cytometry analysis (reference value: 1.47 %); format: functional
# [2] = target: Tyrosine-protein kinase HCK (Homo sapiens) (UniProt P08631); assay: Inhibition of HCK (unknown origin) at 1 uM
# Sequence of Tyrosine-protein kinase HCK (Homo sapiens) (P08631 2-526 limits assumed): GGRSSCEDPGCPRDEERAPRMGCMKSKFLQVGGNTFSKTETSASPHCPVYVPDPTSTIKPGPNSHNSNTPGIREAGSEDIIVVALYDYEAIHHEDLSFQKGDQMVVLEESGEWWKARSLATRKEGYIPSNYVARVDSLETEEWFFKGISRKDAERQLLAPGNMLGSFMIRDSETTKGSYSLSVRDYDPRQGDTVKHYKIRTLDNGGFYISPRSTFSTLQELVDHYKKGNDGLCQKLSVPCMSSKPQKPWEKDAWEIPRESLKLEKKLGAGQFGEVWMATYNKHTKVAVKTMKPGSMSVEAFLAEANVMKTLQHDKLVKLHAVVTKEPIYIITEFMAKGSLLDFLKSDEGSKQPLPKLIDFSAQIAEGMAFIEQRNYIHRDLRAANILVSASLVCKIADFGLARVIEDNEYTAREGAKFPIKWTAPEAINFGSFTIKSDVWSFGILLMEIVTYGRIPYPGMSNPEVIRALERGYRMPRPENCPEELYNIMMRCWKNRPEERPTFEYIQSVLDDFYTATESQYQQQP
# [3] = target: Fibroblast growth factor receptor 2 (Homo sapiens) (UniProt P21802); assay: Inhibition of FGFR2 (unknown origin) at 1 uM
# Sequence of Fibroblast growth factor receptor 2 (Homo sapiens) (P21802 22-821 limits assumed): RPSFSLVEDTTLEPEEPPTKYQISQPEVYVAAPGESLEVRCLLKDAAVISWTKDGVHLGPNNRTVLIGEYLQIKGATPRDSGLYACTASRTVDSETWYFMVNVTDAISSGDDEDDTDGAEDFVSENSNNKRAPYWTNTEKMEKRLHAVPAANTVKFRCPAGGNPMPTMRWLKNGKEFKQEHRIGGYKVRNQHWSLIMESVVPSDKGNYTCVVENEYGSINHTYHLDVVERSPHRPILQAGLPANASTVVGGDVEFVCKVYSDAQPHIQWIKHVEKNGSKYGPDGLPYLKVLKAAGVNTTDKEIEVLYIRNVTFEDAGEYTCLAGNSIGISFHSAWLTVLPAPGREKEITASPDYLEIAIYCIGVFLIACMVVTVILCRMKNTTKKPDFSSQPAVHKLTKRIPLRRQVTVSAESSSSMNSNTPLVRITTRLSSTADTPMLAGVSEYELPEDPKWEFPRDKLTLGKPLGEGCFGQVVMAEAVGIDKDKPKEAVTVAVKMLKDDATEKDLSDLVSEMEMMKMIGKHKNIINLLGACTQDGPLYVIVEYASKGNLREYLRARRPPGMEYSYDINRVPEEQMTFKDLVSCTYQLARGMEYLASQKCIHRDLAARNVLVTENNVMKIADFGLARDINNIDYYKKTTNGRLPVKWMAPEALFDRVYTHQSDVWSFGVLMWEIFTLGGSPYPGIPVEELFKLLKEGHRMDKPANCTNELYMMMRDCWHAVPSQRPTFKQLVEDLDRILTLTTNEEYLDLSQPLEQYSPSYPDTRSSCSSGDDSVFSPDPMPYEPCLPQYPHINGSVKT
# [4] = target: Protein-tyrosine kinase 2-beta (Homo sapiens) (UniProt Q14289); assay: Inhibition of PYK2 (unknown origin) at 1 uM
# [5] = target: Mitogen-activated protein kinase kinase kinase kinase 2 (Homo sapiens) (UniProt Q12851); assay: Inhibition of GCK (unknown origin) at 1 uM
# [6] = test system: Mus musculus; assay: In vivo inhibition of TDO in BALB/c mouse xenografted with human HCT-116 cells assessed as suppression of TDO expression in tumor by immunohistochemical assay; format: functional, organism-based
# [7] = target: Serine/threonine-protein kinase Nek5 (Homo sapiens) (UniProt Q6P3R8); assay: Inhibition of NEK5 (unknown origin) at 1 uM
# [8] = target: Myosin light chain kinase family member 4 (Homo sapiens) (UniProt Q86YV6); assay: Inhibition of MYLK4 (unknown origin) at 1 uM
# Sequence of Myosin light chain kinase family member 4 (Homo sapiens) (Q86YV6 whole entry): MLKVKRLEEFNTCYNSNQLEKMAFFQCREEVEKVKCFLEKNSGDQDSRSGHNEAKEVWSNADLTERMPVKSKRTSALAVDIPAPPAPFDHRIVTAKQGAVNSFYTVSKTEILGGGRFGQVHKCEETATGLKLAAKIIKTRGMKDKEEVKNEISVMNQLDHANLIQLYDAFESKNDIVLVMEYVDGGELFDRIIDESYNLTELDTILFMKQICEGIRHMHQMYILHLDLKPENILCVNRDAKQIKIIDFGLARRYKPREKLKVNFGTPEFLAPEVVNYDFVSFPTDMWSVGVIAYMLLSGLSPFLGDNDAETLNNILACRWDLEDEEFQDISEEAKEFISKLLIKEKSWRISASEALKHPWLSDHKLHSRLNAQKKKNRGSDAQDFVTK
# [9] = target: Serine/threonine-protein kinase/endoribonuclease IRE1 (Homo sapiens) (UniProt O75460); assay: Inhibition of ERN1 (unknown origin) at 1 uM
# Sequence of Serine/threonine-protein kinase/endoribonuclease IRE1 (Homo sapiens) (O75460 19-977 limits assumed): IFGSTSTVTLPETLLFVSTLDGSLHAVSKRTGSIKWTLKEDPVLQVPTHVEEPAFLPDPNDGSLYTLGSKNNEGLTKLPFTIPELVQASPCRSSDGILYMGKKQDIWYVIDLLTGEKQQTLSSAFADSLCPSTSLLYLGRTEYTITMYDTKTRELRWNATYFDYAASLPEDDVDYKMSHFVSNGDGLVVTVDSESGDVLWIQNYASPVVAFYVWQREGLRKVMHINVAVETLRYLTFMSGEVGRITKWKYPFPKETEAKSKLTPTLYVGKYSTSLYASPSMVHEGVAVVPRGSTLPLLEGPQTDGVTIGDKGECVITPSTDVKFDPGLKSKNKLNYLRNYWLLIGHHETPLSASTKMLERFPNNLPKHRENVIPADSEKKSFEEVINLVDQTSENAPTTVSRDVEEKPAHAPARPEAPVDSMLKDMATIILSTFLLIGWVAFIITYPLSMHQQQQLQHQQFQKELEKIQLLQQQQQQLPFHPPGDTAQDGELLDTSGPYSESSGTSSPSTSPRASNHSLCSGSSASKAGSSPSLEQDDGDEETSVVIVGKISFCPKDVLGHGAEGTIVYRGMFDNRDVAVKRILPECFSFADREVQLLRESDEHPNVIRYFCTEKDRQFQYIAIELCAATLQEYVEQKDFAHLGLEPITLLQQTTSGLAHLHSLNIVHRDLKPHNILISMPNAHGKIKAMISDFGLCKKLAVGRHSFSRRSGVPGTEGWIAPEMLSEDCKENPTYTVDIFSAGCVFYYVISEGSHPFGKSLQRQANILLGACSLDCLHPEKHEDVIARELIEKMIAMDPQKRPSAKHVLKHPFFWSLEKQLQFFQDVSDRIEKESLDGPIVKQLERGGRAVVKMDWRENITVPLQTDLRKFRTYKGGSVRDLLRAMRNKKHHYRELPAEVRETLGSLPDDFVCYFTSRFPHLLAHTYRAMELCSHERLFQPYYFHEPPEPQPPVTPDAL
# [10] = target: Dual specificity tyrosine-phosphorylation-regulated kinase 3 (Homo sapiens) (UniProt O43781); assay: Inhibition of DYRK3 (unknown origin) at 1 uM
# [11] = target: Serine/threonine-protein kinase ULK1 (Homo sapiens) (UniProt O75385); assay: Inhibition of ULK1 (unknown origin) at 1 uM
# [12] = target: Serine/threonine-protein kinase BRSK1 (Homo sapiens) (UniProt Q8TDC3); assay: Inhibition of BRSK1 (unknown origin) at 1 uM
# [13] = target: Protein kinase C epsilon type (Homo sapiens) (UniProt Q02156); assay: Inhibition of PKCepsilon (unknown origin)at 1 uM
# [14] = target: Serine/threonine-protein kinase Nek1 (Homo sapiens) (UniProt Q96PY6); assay: Inhibition of NEK1 (unknown origin) at 1 uM
# [15] = Clearance in rat liver microsomes; format: ADME, Microsome; settings: read-out: CLH
# [16] = test system: HCT-116; assay: Antitumor immunity in BALB/c mouse xenografted with human HCT-116 cells assessed as induction of apoptosis of CD4+ T-lymphocytes in tumor-draining lymph nodes by propidium iodide staining based flow cytometry analysis (reference value: 21.9 %); format: functional
# [17] = target: Platelet-derived growth factor receptor beta (Homo sapiens) (UniProt P09619); assay: Inhibition of PDGFRbeta (unknown origin) at 1 uM
# [18] = target: Serine/threonine-protein kinase OSR1 (Homo sapiens) (UniProt O95747); assay: Inhibition of OSR1 (unknown origin) at 1 uM
# [19] = target: Vascular endothelial growth factor receptor 3 (Homo sapiens) (UniProt P35916); assay: Inhibition of FLT4 (unknown origin) at 1 uM
# [20] = target: CDC7/DBF4 (Cell division cycle 7-related protein kinase/Activator of S phase kinase) (Homo sapiens) (UniProt Q9UBU7+O00311); assay: Inhibition of CDC7/DBF4 (unknown origin) at 1 uM; format: protein-complex assay
# [21] = Tmax in Sprague-Dawley rat at 50 mg/kg, po; format: ADME, organism-based; settings: in vivo
# [22] = target: Ephrin type-B receptor 1 (Homo sapiens) (UniProt P54762); assay: Inhibition of EPHB1 (unknown origin) at 1 uM
# [23] = target: CDK7/Cyclin H/MNAT1 (Homo sapiens) (UniProt P51946+P50613+P51948); assay: Inhibition of CDK7/cyclin-H/MNAT1 (unknown origin) at 1 uM; format: protein-complex assay
# [24] = target: RAC-alpha serine/threonine-protein kinase (Homo sapiens) (UniProt P31749); assay: Inhibition of AKT1 (unknown origin) at 1 uM
# [25] = target: Platelet-derived growth factor receptor alpha (Homo sapiens) (UniProt P16234); assay: Inhibition of PDGFRalpha (unknown origin) at 1 uM
# [26] = test system: HCT-116; assay: Antitumor immunity in BALB/c mouse xenografted with human HCT-116 cells assessed as induction of apoptosis of CD4+ T-lymphocytes in spleen by propidium iodide staining based flow cytometry analysis (reference value: 33.9 %); format: functional
# [27] = target: Serine/threonine-protein kinase Nek2 (Homo sapiens) (UniProt P51955); assay: Inhibition of NEK2 (unknown origin) at 1 uM
# [28] = target: Glycogen synthase kinase-3 alpha (Homo sapiens) (UniProt P49840); assay: Inhibition of GSK3A (unknown origin) at 1 uM
# Sequence of Glycogen synthase kinase-3 alpha (Homo sapiens) (P49840 2-483 limits assumed): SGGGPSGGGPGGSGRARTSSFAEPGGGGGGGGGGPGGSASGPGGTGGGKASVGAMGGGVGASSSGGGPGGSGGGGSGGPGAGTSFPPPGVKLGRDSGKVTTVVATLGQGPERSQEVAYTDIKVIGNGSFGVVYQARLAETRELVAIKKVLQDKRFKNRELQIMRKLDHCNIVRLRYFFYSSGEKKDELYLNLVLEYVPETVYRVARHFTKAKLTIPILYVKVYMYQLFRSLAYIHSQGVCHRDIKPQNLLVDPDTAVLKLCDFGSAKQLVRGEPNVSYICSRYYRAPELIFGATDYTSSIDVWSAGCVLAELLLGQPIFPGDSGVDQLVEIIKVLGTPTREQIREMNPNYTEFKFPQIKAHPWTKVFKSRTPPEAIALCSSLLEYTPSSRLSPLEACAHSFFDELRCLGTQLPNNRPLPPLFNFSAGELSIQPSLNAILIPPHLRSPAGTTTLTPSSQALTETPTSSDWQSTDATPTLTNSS
# [29] = target: Mitogen-activated protein kinase kinase kinase 20 (Homo sapiens) (UniProt Q9NYL2); assay: Inhibition of ZAK (unknown origin) at 1 uM
# [30] = target: Mitogen-activated protein kinase 8 (Homo sapiens) (UniProt P45983); assay: Inhibition of JNK1 (unknown origin) at 1 uM
# [31] = Protein binding in ICR mouse plasma assessed as fraction unbound by equilibrium dialysis; format: ADME, cell-free
# [32] = target: CDK4/Cyclin D3 (Homo sapiens) (UniProt P11802+P30281); assay: Inhibition of CDK4/cyclin-D3 (unknown origin) at 1 uM; format: protein-complex assay
# [33] = target: Casein kinase I isoform alpha (Homo sapiens) (UniProt P48729); assay: Inhibition of CK1a1 (unknown origin) at 1 uM
# Sequence of Casein kinase I isoform alpha (Homo sapiens) (P48729 2-337 limits assumed): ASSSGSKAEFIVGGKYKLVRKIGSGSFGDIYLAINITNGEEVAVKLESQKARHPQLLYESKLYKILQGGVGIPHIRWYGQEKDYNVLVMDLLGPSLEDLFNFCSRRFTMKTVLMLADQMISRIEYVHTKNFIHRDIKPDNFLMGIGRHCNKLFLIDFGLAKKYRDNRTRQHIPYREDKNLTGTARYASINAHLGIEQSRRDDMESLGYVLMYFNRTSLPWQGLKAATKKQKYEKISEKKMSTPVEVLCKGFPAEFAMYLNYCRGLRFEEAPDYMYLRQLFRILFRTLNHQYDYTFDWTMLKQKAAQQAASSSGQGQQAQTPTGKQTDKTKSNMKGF
# [34] = target: Activin receptor type-1-like (Homo sapiens) (UniProt P37023); assay: Inhibition of ALK1 (unknown origin) at 1 uM
# [35] = target: Ephrin type-B receptor 3 (Homo sapiens) (UniProt P54753); assay: Inhibition of EPHB3 (unknown origin) at 1 uM
# Sequence of Ephrin type-B receptor 3 (Homo sapiens) (P54753 whole entry): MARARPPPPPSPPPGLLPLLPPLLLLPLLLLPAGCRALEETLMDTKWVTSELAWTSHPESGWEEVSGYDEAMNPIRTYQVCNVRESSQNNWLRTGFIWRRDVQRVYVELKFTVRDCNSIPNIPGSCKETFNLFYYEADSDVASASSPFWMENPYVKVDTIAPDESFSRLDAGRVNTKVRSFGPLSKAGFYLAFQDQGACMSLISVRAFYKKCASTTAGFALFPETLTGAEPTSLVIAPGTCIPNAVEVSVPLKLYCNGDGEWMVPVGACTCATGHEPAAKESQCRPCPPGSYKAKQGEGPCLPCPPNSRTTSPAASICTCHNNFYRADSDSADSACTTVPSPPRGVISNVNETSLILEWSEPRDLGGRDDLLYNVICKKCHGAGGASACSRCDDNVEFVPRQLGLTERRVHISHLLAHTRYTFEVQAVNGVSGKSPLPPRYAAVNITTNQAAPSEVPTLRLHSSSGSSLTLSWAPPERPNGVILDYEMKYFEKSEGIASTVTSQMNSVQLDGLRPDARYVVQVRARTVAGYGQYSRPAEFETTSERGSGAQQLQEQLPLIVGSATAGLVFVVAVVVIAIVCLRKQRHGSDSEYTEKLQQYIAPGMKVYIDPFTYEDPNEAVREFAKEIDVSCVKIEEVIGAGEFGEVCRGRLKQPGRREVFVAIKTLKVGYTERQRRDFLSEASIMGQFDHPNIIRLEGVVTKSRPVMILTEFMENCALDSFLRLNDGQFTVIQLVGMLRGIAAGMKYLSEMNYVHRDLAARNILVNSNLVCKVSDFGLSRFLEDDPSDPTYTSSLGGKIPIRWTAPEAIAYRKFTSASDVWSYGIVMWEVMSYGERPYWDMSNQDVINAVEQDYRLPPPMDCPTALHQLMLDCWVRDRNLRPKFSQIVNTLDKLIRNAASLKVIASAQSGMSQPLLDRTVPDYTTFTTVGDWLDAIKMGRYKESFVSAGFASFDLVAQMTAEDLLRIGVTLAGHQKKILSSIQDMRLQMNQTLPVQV
# [36] = test system: Mus musculus; assay: In vivo inhibition of IDO2 in BALB/c mouse xenografted with human HCT-116 cells assessed as suppression of IDO2 mRNA expression in tumor by quantitative RT-PCR analysis; format: functional, organism-based
# [37] = target: RAF proto-oncogene serine/threonine-protein kinase (Homo sapiens) (UniProt P04049); assay: Inhibition of RAF1 (unknown origin) at 1 uM
# [38] = target: Receptor tyrosine-protein kinase erbB-4 (Homo sapiens) (UniProt Q15303); assay: Inhibition of ERBB4 (unknown origin) at 1 uM
# [39] = target: MAP kinase-activated protein kinase 3 (Homo sapiens) (UniProt Q16644); assay: Inhibition of MAPKAPK3 (unknown origin) at 1 uM
# [40] = target: Tyrosine-protein kinase ABL2 (Homo sapiens) (UniProt P42684); assay: Inhibition of ABL2 (unknown origin) at 1 uM
# [41] = target: RAC-gamma serine/threonine-protein kinase (Homo sapiens) (UniProt Q9Y243); assay: Inhibition of AKT3 (unknown origin) at 1 uM
# Sequence of RAC-gamma serine/threonine-protein kinase (Homo sapiens) (Q9Y243 whole entry): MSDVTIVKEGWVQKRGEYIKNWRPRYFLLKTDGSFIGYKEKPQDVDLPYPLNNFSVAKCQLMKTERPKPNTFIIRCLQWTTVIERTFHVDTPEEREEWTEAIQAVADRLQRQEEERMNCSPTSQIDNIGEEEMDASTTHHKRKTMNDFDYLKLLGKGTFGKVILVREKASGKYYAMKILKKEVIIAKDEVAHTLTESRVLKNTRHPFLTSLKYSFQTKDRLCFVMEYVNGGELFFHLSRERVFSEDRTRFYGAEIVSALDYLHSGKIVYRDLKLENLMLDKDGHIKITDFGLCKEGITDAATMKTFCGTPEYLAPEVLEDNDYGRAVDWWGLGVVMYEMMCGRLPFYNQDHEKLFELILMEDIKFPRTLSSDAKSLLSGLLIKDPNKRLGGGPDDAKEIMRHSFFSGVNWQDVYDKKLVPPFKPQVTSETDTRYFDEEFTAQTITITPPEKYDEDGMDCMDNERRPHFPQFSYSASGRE
# [42] = test system: Mus musculus; assay: Toxicity in BALB/c mouse implanted with mouse CT26 cells assessed as adverse effect at 50 mg/kg, ip bid for 28 days; format: organism-based; settings: in vivo, 672 h, time 28 day
structure (smiles),measurement,setting,value
OCCOCc1cn(CCNc2nonc2/C(=N/O)Nc2ccc(F)c(Br)c2)nn1,Activity,[1],0.78%
same,inhibition,[2],inactive
same,inhibition,[3],inactive
same,inhibition,[4],inactive
same,inhibition,[5],inactive
same,inhibition,[6],inactive
same,inhibition,[7],inactive
same,inhibition,[8],inactive
same,inhibition,[9],inactive
same,inhibition,[10],inactive
same,inhibition,[11],inactive
same,inhibition,[12],inactive
same,inhibition,[13],inactive
same,inhibition,[14],inactive
same,microsomal CLint,[15],65.3 µL/min/mg
same,Activity,[16],8.83%
same,inhibition,[17],inactive
same,inhibition,[18],inactive
same,inhibition,[19],inactive
same,inhibition,[20],inactive
same,Tmax,[21],1.3 h
same,inhibition,[22],inactive
same,inhibition,[23],inactive
same,inhibition,[24],inactive
same,inhibition,[25],inactive
same,Activity,[26],15.3%
same,inhibition,[27],inactive
same,inhibition,[28],inactive
same,inhibition,[29],inactive
same,inhibition,[30],inactive
same,fraction unbound,[31],0.0968
same,inhibition,[32],inactive
same,inhibition,[33],inactive
same,inhibition,[34],inactive
same,inhibition,[35],inactive
same,inhibition,[36],Active
same,inhibition,[37],inactive
same,inhibition,[38],inactive
same,inhibition,[39],inactive
same,inhibition,[40],inactive
same,inhibition,[41],inactive
same,Activity,[42],Non-Toxic
